In patent publication US20180000085A1, “USE OF PICOLINAMIDE COMPOUNDS WITH FUNGICIDAL ACTIVITY” (DOW AGROSCIENCES LLC, priority 2014, published 2018):

Tests used:
[1] = system: Puccinia triticina; assay: Wheat brown rust (PUCCRT) disease control on wheat seedlings; format: in vivo; parameters: key to PUCCRT 3DC, HV activity at 100 ppm (% control rating) / PUCCRT disease control, 3DC / PUCCRT 1DP disease control rating, HV activity / PUCCRT 3DC disease control rating, HV activity / PUCCRT 3DC, LV activity at 125.1 g/H (% Control rating) / PUCCRT 1DP, LV activity at 125.1 g/H (% Control rating) / PUCCRT 3DC disease control rating, LV activity at 125.1 g/H / PUCCRT 1DP disease control rating, LV activity at 125.1 g/H / PUCCRT 3DC disease control rating, HV activity at 100 ppm / PUCCRT 1DP disease control rating, HV activity at 100 ppm / HV activity at 100 ppm PUCCRT 3DC (disease control rating) / LV activity at 125.1 g/H PUCCRT 1DP (disease control rating) / LV activity at 125.1 g/H PUCCRT 3DC (disease control rating): A: > 80; B: ≤ 80; C: Not Tested; D: No Activity Observed in the Reported Assay; conditions: for PUCCRT 1DP disease control rating, LV activity at 125.1 g/H / PUCCRT 1DP disease control rating, HV activity at 100 ppm: 1 day protectant; for PUCCRT 3DC disease control rating, LV activity at 125.1 g/H / PUCCRT 3DC disease control rating, HV activity at 100 ppm: 3 day curative; for PUCCRT 1DP disease control rating, HV activity at 100 ppm / PUCCRT 3DC disease control rating, HV activity at 100 ppm: high volume application
[2] = system: Zymoseptoria tritici; assay: Leaf blotch of wheat (SEPTTR) disease control on wheat seedlings; format: in vivo; parameters: key to SEPTTR 1DP, HV activity at 100 ppm (% control rating) / SEPTTR 3DC, HV activity at 100 ppm (% control rating) / SEPTTR disease control, 1DP / SEPTTR disease control, 3DC / SEPTTR 1DP disease control rating, HV activity / SEPTTR 3DC disease control rating, HV activity / SEPTTR 3DC, LV activity at 125.1 g/H (% Control rating) / SEPTTR 1DP, LV activity at 125.1 g/H (% Control rating) / SEPTTR 1DP disease control rating, LV activity at 125.1 g/H / SEPTTR 3DC disease control rating, LV activity at 125.1 g/H / SEPTTR 3DC disease control rating, HV activity at 100 ppm / SEPTTR 1DP disease control rating, HV activity at 100 ppm / HV activity at 100 ppm SEPTTR 3DC (disease control rating) / HV activity at 100 ppm SEPTTR 1DP (disease control rating) / LV activity at 125.1 g/H SEPTTR 1DP (disease control rating) / LV activity at 125.1 g/H SEPTTR 3DC (disease control rating): A: > 80; B: ≤ 80; C: Not Tested; D: No Activity Observed in the Reported Assay; conditions: for SEPTTR 1DP disease control rating, LV activity at 125.1 g/H / SEPTTR 1DP disease control rating, HV activity at 100 ppm: 1 day protectant; for SEPTTR 3DC disease control rating, LV activity at 125.1 g/H / SEPTTR 3DC disease control rating, HV activity at 100 ppm: 3 day curative; for SEPTTR 1DP disease control rating, HV activity at 100 ppm / SEPTTR 3DC disease control rating, HV activity at 100 ppm: high volume application
[3] = low volume application, 125.1 g/H
[4] = low volume application, 125.1 g/H, 1 Day Protectant
[5] = low volume application, 125.1 g/H, 3 Day Curative

Compound	PUCCRT 1DP disease control rating, LV activity at 125.1 g/H [1, 3]	PUCCRT 3DC disease control rating, LV activity at 125.1 g/H [1, 3]	SEPTTR 1DP disease control rating, LV activity at 125.1 g/H [2, 3]	SEPTTR 3DC disease control rating, LV activity at 125.1 g/H [2, 3]	PUCCRT 1DP disease control rating, HV activity at 100 ppm [1]	PUCCRT 3DC disease control rating, HV activity at 100 ppm [1]	SEPTTR 1DP disease control rating, HV activity at 100 ppm [2]	SEPTTR 3DC disease control rating, HV activity at 100 ppm [2]	further results
CCC(CC)C(Oc1ccc(Cl)cc1)C(C)OC(=O)C(C)NC(=O)c1nccc(OC)c1OC(C)=O (stereo not drawn) [Cmpd 674]	A (> 80)	B (≤ 80)	A (> 80)	A (> 80)					
COc1ccnc(C(=O)NC(C)C(=O)OC(C)C(Oc2ccccc2)c2ccccc2)c1OC(=O)C(C)C (stereo not drawn) [Cmpd 871]	D	D	A (> 80)	B (≤ 80)					
COc1ccnc(C(=O)N[C@H](C(=O)O[C@@H](C)[C@H](Oc2cccc(Cl)c2)C(C)C)C(C)C)c1OCOC(C)=O [Cmpd 564]									PUCCRT 1DP, LV activity at 125.1 g/H (% Control rating) [1, 4]: A (> 80); PUCCRT 3DC, LV activity at 125.1 g/H (% Control rating) [1, 5]: A (> 80); SEPTTR 1DP, LV activity at 125.1 g/H (% Control rating) [2, 4]: A (> 80); SEPTTR 3DC, LV activity at 125.1 g/H (% Control rating) [2, 5]: A (> 80)
COc1ccnc(C(=O)N[C@@H](C)C(=O)O[C@@H](C)[C@H](OCC(C)C)C2CCCC2)c1OC(C)=O [Cmpd 922]	A (> 80)	A (> 80)	A (> 80)	B (≤ 80)					
COc1ccnc(C(=O)NC(C)C(=O)OC(C)C(Oc2ccc(F)cc2)c2ccc(F)cc2)c1O (mixture of isomers) [Cmpd 838]					A (> 80)	B (≤ 80)	A (> 80)	A (> 80)	
COc1ccnc(C(=O)N[C@@H](C)C(=O)O[C@@H](C)[C@H](Oc2ccccc2)C2CC2)c1O [Cmpd 1016]					A (> 80)	A (> 80)	B (≤ 80)	B (≤ 80)	
CCC(CC)C(Oc1ccc(Cl)cc1)C(C)OC(=O)C(CC(C)C)NC(=O)c1nccc(OC)c1OC(C)=O (stereo not drawn) [Cmpd 686]	D	D	D	B (≤ 80)					
CC(=O)OCOc1c(Cl)ccnc1C(=O)NC(C)C(=O)OC(C)C(Oc1ccccc1)C(C)C (stereo not drawn) [Cmpd 679]	B (≤ 80)	D	D	B (≤ 80)					
COc1ccnc(C(=O)NCC(=O)O[C@@H](C)[C@H](Oc2ccccc2)C(C)C)c1O [Cmpd 809]					A (> 80)	A (> 80)	D	D	
